The source of these data is patent US8993714B2, “Streptavidin macromolecular adaptor and complexes thereof” (Imiplex LLC, priority 2007, dated 2015).

pKd: −log10 of the molar value.

In data set [1] the target is T1, streptavidin (Streptomyces avidinii, UniProt P22629). In words: Ligand binding to the streptavidin biotin binding site (dissociation constant). The text has this:
A strut can be formed from streptavidin (FIG. 1), a tetrameric protein of 60 kiloDalton molecular weight secreted by the bacterium Streptomyces avidinii. […] Part d designates two of the four bound biotins on the same “side” of the tetramer in space filling representation. Part e is a representation of the streptavidin tetramer surface showing overall molecular shape.
For example, the first and/or the second moiety can be an iminobiotin group. […] However, at pH values of less than or equal to about 4, the imino group on iminobiotin becomes charged, so that it is displaced from the streptavidin binding site. Thus, a structure can be temporarily formed using an iminobiotin-functionalized crosslinking reagent. […] Then, by lowering the pH below 4, the iminobiotin bonds can release, and components of the temporary structure can be washed away. Thus, a bifunctional crosslinking reagent with an iminobiotin group as the first and/or second moiety can be used to form a temporary scaffold, which assists in the construction of a permanent nanostructure.
More generally, the dyes can be used to monitor the assembly of streptavidin-linked nanostructures.
MALDI or ESI MS can be used to characterize the species. […] FIGS. 34c and 34d show the structures of the 1:1 and 1:2 Azido-ATP-linked SAV:SAMA complexes. Spectroscopic methods can be used to monitor SAV:SAMA complex formation using a dye displacement approach and using DLS alone or combined with static light scattering.

Data set [2] has as its target T1, streptavidin. To be noted: neutral pH; read-out: iminobiotin dissociation constant; cited from earlier work.
The nature of data set [3]: Stability on 4-12% Bis-TRIS MOPS SDS PAGE after heating at 70° C. with reducing agent and SDS. Format: physicochemical. To be noted: 70° C. for 10 minutes with reducing agent and SDS. The procedure: We established optimal conditions for complex formation. One issue involved the existence of stable dimeric, trimeric and higher aggregates of streptavidin in most preparations (Sano & Cantor 1990b; Kurzban et al. 1991; Waner et al. 2004). We found the aggregates of liganded and unliganded streptavidin stable to heating at 70° C. and the liganded streptavidin aggregates also stable in SDS PAGE running buffers (FIG. 33). We exploited these features in a gel assay to help assess complexation in both denaturing and native gels (see FIG. 33). The left and middle panels of FIG. 33 show complexes of SAMA and streptavidin analyzed on 4-12% Bis-TRIS gels with 3-(N-Morpholino)propanesulfonic acid (MOPS) SDS running buffer. […] Prior to loading, samples were heated at 70° C. for 10 minutes together with reducing agent and SDS. Lanes are numbered on the top and the sample identity (SAMA and linking reagent) given below. Mark12 MW standards (Invitrogen) are in Lane 1. […] Schematics on the left indicate the electrophoretic mobilities of control molecules including the streptavidin monomer, derivatized and underivatized SAMA monomers, the streptavidin:biotin tetramer and higher order aggregates of the streptavidin:biotin tetramer. Brackets and schematics on the right indicate probable electrophoretic mobilities of SAMA:SAV complexes. […]

T1 sequence (P22629 25-183): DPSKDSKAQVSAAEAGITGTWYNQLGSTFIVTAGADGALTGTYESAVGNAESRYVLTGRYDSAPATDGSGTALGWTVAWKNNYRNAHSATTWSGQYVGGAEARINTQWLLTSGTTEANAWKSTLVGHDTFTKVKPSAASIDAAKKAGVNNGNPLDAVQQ

As to `O=C(O)c1ccccc1N=Nc1ccc(O)cc1` [HABA, 4′-hydroxyazobenzene-2-carboxylic acid], on streptavidin [1], the “binds more weakly to streptavidin than biotin” value is on record as 8 orders of magnitude and the “binds more weakly to streptavidin than iminobiotin” value is on record as 5 orders of magnitude.

As to `N=C1N[C@H]2[C@H](CS[C@H]2CCCCC(=O)O)N1` [iminobiotin], on streptavidin [1], the “iminobiotin dissociation constant relative to biotin-streptavidin dissociation constant, orders of magnitude greater” value is 3 orders of magnitude. Further, the pKd at streptavidin [2] is approximately 11.00.

For “streptavidin: tetrameric protein of 60 kiloDalton secreted by Streptomyces avidinii with 4 biotin binding sites”, the “folded state under gel conditions” value in data set [3] was “denatured”.
